# Publication PMC10850145, “Hormonal steroids induce multidrug resistance and stress response genes in Neisseria gonorrhoeae by binding to MtrR” (Nature Communications, 2024)
# Several values for one entry are separate records, joined by “and”; a condition that tells them apart may be missing. Equal entries are not always repeated.
# How the values were obtained:
# FA19 mtrD::kan (KH14) = assay: MIC of steroidal hormones on GC agar, FA19 mtrD::kan (KH14); format: cell-based, Neisseria gonorrhoeae
# Protocol: (§1) To determine the minimal inhibitory concentrations (MICs) by the steroidal hormones and their effect on antimicrobial susceptibility, 5 x 10^5 CFU and 1:5 serial dilutions of gonococcal strains were spotted on GC agar plates containing different concentrations of antibiotics and/or hormones as indicated. Antimicrobial susceptibility was assessed after 24 h incubation.
# (§2) Table S1. Steroidal hormones are substrates of the MtrCDE efflux pump
# (§3) Progesterone Testosterone
# (§4) *Minimal inhibition concentration is defined by the lowest concentration at which visible growth is […]
# gonococcal strain FA19 = assay: MIC of steroidal hormones on GC agar, strain FA19; format: cell-based; details: Neisseria gonorrhoeae
# Protocol: as §1, §2, §3, §4
# FA19-rpoH-lacZ = assay: Gonococcal growth in liquid culture (GC broth) with hormones (Fig S7)
compound,measurement,setting,value
"C[C@]12CC[C@H]3[C@@H](CCC4=CC(=O)CC[C@@]43C)[C@@H]1CC[C@@H]2O [Testosterone, testosterone]",MIC,FA19 mtrD::kan (KH14); Neisseria gonorrhoeae,40 µg/mL and 139 µM
same,effect of mtrD deletion on MIC,FA19 mtrD::kan (KH14); vs FA19,lowered
same,MIC,gonococcal strain FA19; FA19,160 µg/mL
same,MIC,"gonococcal strain FA19; FA19, 24 h",555 µM
same,growth curve reading after BLANKING (testosterone run),"FA19-rpoH-lacZ; 0 hr, 0.1 µM",0.013
same,"growth curve reading, raw replicates (testosterone run)","FA19-rpoH-lacZ; 0 hr, 0.1 µM",0.046
same,growth curve reading after BLANKING (testosterone run),"FA19-rpoH-lacZ; 0 hr, 1 µM",0.013
same,"growth curve reading, raw replicates (testosterone run)","FA19-rpoH-lacZ; 0 hr, 1 µM",0.046
same,growth curve reading after BLANKING (testosterone run),"FA19-rpoH-lacZ; 0 hr, 10 µM",0.013
same,"growth curve reading, raw replicates (testosterone run)","FA19-rpoH-lacZ; 0 hr, 10 µM",0.046
same,growth curve reading after BLANKING (testosterone run),"FA19-rpoH-lacZ; 0 hr, 50 µM",0.013
same,"growth curve reading, raw replicates (testosterone run)","FA19-rpoH-lacZ; 0 hr, 50 µM",0.046
same,growth curve reading after BLANKING (testosterone run),"FA19-rpoH-lacZ; 0 hr, 100 µM",0.013
same,"growth curve reading, raw replicates (testosterone run)","FA19-rpoH-lacZ; 0 hr, 100 µM",0.046
same,growth curve reading after BLANKING (testosterone run),"FA19-rpoH-lacZ; 2 hr, 0.1 µM",0.048
same,"growth curve reading, raw replicates (testosterone run)","FA19-rpoH-lacZ; 2 hr, 0.1 µM",0.082 and 0.080 and 0.081
same,growth curve reading after BLANKING (testosterone run),"FA19-rpoH-lacZ; 2 hr, 1 µM",0.047
same,"growth curve reading, raw replicates (testosterone run)","FA19-rpoH-lacZ; 2 hr, 1 µM",0.077 and 0.081 and 0.082
same,growth curve reading after BLANKING (testosterone run),"FA19-rpoH-lacZ; 2 hr, 10 µM",0.047
same,"growth curve reading, raw replicates (testosterone run)","FA19-rpoH-lacZ; 2 hr, 10 µM",0.079 and 0.083
same,growth curve reading after BLANKING (testosterone run),"FA19-rpoH-lacZ; 2 hr, 50 µM",0.049
same,"growth curve reading, raw replicates (testosterone run)","FA19-rpoH-lacZ; 2 hr, 50 µM",0.083 and 0.081
same,growth curve reading after BLANKING (testosterone run),"FA19-rpoH-lacZ; 2 hr, 100 µM",0.048
same,"growth curve reading, raw replicates (testosterone run)","FA19-rpoH-lacZ; 2 hr, 100 µM",0.089 and 0.075 and 0.078
same,growth curve reading after BLANKING (testosterone run),"FA19-rpoH-lacZ; 3 hr, 0.1 µM",0.071
same,growth curve reading after BLANKING (testosterone run),"FA19-rpoH-lacZ; 3 hr, 1 µM",0.076
same,growth curve reading after BLANKING (testosterone run),"FA19-rpoH-lacZ; 3 hr, 10 µM",0.073
same,growth curve reading after BLANKING (testosterone run),"FA19-rpoH-lacZ; 3 hr, 50 µM",0.076
same,growth curve reading after BLANKING (testosterone run),"FA19-rpoH-lacZ; 3 hr, 100 µM",0.077
same,"growth curve reading, raw replicates (testosterone run)","FA19-rpoH-lacZ; 3 hr, 100 µM",0.116
same,growth curve reading after BLANKING (testosterone run),"FA19-rpoH-lacZ; 4.03 hr, 0.1 µM",0.095
same,"growth curve reading, raw replicates (testosterone run)","FA19-rpoH-lacZ; 4.03 hr, 0.1 µM",0.117
same,growth curve reading after BLANKING (testosterone run),"FA19-rpoH-lacZ; 4.03 hr, 1 µM",0.101
same,growth curve reading after BLANKING (testosterone run),"FA19-rpoH-lacZ; 4.03 hr, 10 µM",0.099
same,growth curve reading after BLANKING (testosterone run),"FA19-rpoH-lacZ; 4.03 hr, 50 µM",0.102
same,growth curve reading after BLANKING (testosterone run),"FA19-rpoH-lacZ; 4.03 hr, 100 µM",0.108
same,"growth curve reading, raw replicates (testosterone run)","FA19-rpoH-lacZ; 4.03 hr, 100 µM",0.148
same,growth curve reading after BLANKING (testosterone run),"FA19-rpoH-lacZ; 5.03 hr, 0.1 µM",0.121
same,"growth curve reading, raw replicates (testosterone run)","FA19-rpoH-lacZ; 5.03 hr, 0.1 µM",0.160 and 0.163
same,growth curve reading after BLANKING (testosterone run),"FA19-rpoH-lacZ; 5.03 hr, 1 µM",0.127
same,"growth curve reading, raw replicates (testosterone run)","FA19-rpoH-lacZ; 5.03 hr, 1 µM",0.163 and 0.161 and 0.157
same,growth curve reading after BLANKING (testosterone run),"FA19-rpoH-lacZ; 5.03 hr, 10 µM",0.125
same,"growth curve reading, raw replicates (testosterone run)","FA19-rpoH-lacZ; 5.03 hr, 10 µM",0.164 and 0.157 and 0.153
same,growth curve reading after BLANKING (testosterone run),"FA19-rpoH-lacZ; 5.03 hr, 50 µM",0.130
same,"growth curve reading, raw replicates (testosterone run)","FA19-rpoH-lacZ; 5.03 hr, 50 µM",0.161 and 0.162 and 0.165
same,growth curve reading after BLANKING (testosterone run),"FA19-rpoH-lacZ; 5.03 hr, 100 µM",0.139
same,"growth curve reading, raw replicates (testosterone run)","FA19-rpoH-lacZ; 5.03 hr, 100 µM",0.174 and 0.161 and 0.181
same,growth curve reading after BLANKING (testosterone run),"FA19-rpoH-lacZ; 6.03 hr, 0.1 µM",0.152
same,"growth curve reading, raw replicates (testosterone run)","FA19-rpoH-lacZ; 6.03 hr, 0.1 µM",0.171 and 0.189 and 0.195
same,growth curve reading after BLANKING (testosterone run),"FA19-rpoH-lacZ; 6.03 hr, 1 µM",0.157
same,"growth curve reading, raw replicates (testosterone run)","FA19-rpoH-lacZ; 6.03 hr, 1 µM",0.195 and 0.191 and 0.185
same,growth curve reading after BLANKING (testosterone run),"FA19-rpoH-lacZ; 6.03 hr, 10 µM",0.151
same,"growth curve reading, raw replicates (testosterone run)","FA19-rpoH-lacZ; 6.03 hr, 10 µM",0.192 and 0.181 and 0.179
same,growth curve reading after BLANKING (testosterone run),"FA19-rpoH-lacZ; 6.03 hr, 50 µM",0.161
same,"growth curve reading, raw replicates (testosterone run)","FA19-rpoH-lacZ; 6.03 hr, 50 µM",0.192 and 0.195
same,growth curve reading after BLANKING (testosterone run),"FA19-rpoH-lacZ; 6.03 hr, 100 µM",0.177
same,"growth curve reading, raw replicates (testosterone run)","FA19-rpoH-lacZ; 6.03 hr, 100 µM",0.198
same,growth curve reading after BLANKING (testosterone run),"FA19-rpoH-lacZ; 7.03 hr, 0.1 µM",0.177
same,"growth curve reading, raw replicates (testosterone run)","FA19-rpoH-lacZ; 7.03 hr, 0.1 µM",0.195
same,growth curve reading after BLANKING (testosterone run),"FA19-rpoH-lacZ; 7.03 hr, 1 µM",0.182
same,"growth curve reading, raw replicates (testosterone run)","FA19-rpoH-lacZ; 7.03 hr, 1 µM",0.210
same,growth curve reading after BLANKING (testosterone run),"FA19-rpoH-lacZ; 7.03 hr, 10 µM",0.178
same,"growth curve reading, raw replicates (testosterone run)","FA19-rpoH-lacZ; 7.03 hr, 10 µM",0.205
same,"growth curve reading, raw replicates (testosterone run)","FA19-rpoH-lacZ; 7.03 hr, 100 µM",0.250
same,growth curve reading after BLANKING (testosterone run),"FA19-rpoH-lacZ; 7.3 hr, 100 µM",0.226
same,"growth curve reading, raw replicates (testosterone run)","FA19-rpoH-lacZ; 7.3 hr, 100 µM",0.266 and 0.272
same,growth curve reading after BLANKING (testosterone run),"FA19-rpoH-lacZ; […], 0.1 µM",0.028
same,growth curve reading after BLANKING (testosterone run),"FA19-rpoH-lacZ; […], 1 µM",0.027
same,growth curve reading after BLANKING (testosterone run),"FA19-rpoH-lacZ; […], 10 µM",0.026
same,growth curve reading after BLANKING (testosterone run),"FA19-rpoH-lacZ; […], 50 µM",0.026
same,growth curve reading after BLANKING (testosterone run),"FA19-rpoH-lacZ; […], 100 µM",0.025
